# In article PMC6332448, “SAR Studies Leading to the Identification of a Novel Series of Metallo-β-lactamase Inhibitors for the Treatment of Carbapenem-Resistant Enterobacteriaceae Infections That Display Efficacy in an Animal Infection Model” (ACS Infectious Diseases, 2018):
# Values joined by “and” are separate entries in the source; they are usually repeats but may differ in a detail not shown here. Equal values may be shown once. Read-outs that look alike come from different tables or passages of the source.
# Columns and labels:
# NDM-1 = NDM-1 (Klebsiella pneumoniae, UniProt C7C422); test: biochemical; format: biochemical; conditions: for IC50: 10 mM HEPES pH 7.5, 25 °C, average of at least two independent assays; for inhibition of NDM-1, in words: tested up to 200 μM
# VIM-1 = VIM-1 (Pseudomonas aeruginosa, UniProt A0A0F7KYQ8); test: biochemical; format: biochemical; conditions: for inhibition of VIM-1, in words: tested up to 200 μM
# IMP-1 = IMP-1 (Serratia marcescens, UniProt P52699); test: biochemical; format: biochemical; conditions: for inhibition of IMP-1, in words: tested up to 200 μM
# [1] = tested on: NDM-1-producing strain Escherichia coli NTBC121; test: Whole-cell meropenem potentiation, CLSI broth microdilution MIC; format: cell-based; conditions: for MICMEM (meropenem MIC in presence of inhibitor) vs NTBC121: inhibitor present at 100 μM, meropenem alone 32 μg/mL; for potentiation efficiency (PE = MIC/IC50): potentiated meropenem MIC vs E. coli NTBC121 divided by NDM-1 IC50
# Experimental: (§1) Minimal inhibitory concentrations (MIC) were determined using the Clinical Laboratory Standards Institute (CLSI) broth microdilution procedure. MBL-positive Enterobacteriaceae clinical isolates tested in the susceptibility study included NDM-1-producing strain E. coli NTBC121, VIM-1-producing strain K. pneumoniae NTBC055, and IMP-1-producing strain K. pneumoniae NTBC062. (Individual MICs for all strains tested are presented in Table 2 and Table 1 in the Supporting Information).
# [2] = tested on: VIM-1-producing strain Klebsiella pneumoniae NTBC055; test: as above; format: cell-based; conditions: K. pneumoniae NTBC055 (VIM-1); for MICMEM (meropenem MIC in presence of inhibitor) vs NTBC055: inhibitor present at 100 μM, meropenem alone 16 μg/mL
# Experimental: as §1
# [3] = tested on: IMP-1-producing strain K. pneumoniae NTBC062; test: as above; format: cell-based, Klebsiella pneumoniae; conditions: K. pneumoniae NTBC062 (IMP-1); for MICMEM (meropenem MIC in presence of inhibitor) vs NTBC062: inhibitor present at 100 μM, meropenem alone 4 μg/mL
# Experimental: as §1
# [4] = Kinetic solubility in PBS pH 7.4; format: physicochemical; conditions: phosphate-buffered saline, pH 7.4, aqueous buffer, thermodynamic from solid
# Experimental: This was determined by vigorous stirring (1200 rpm) of a 20 mg/mL mixture of the test compound in phosphate-buffered saline (PBS) at pH 7.4 for 4 h. The mixture was then centrifuged for 20 min at 10 000 rpm and the supernatant further processed by filtration. The concentration of the test compound in the filtrate was then determined by high-performance liquid chromatography (UV analysis) by comparison to a standard calibration curve of the test compound.
# VIM-2 [5] = molecular target: T1, VIM-2 (Escherichia coli, UniProt Q5U7L7); test: biochemical
# VIM-2 [6] = molecular target: T1, VIM-2; conditions: tested up to 200 μM
# [7] = 300 μM imipenem, read-out: NDM-1 IC50
# [8] = 300 μM imipenem, 10 mM HEPES pH 7.5, 25 °C, average of at least two independent assays, read-out: VIM-1 IC50
# [9] = 300 μM imipenem, 10 mM HEPES pH 7.5, 25 °C, average of at least two independent assays, read-out: IMP-1 IC50
# [10] = Klebsiella pneumoniae, no inhibitor
# IMP-1, sequence (P52699 19-246, looked up, species assumed): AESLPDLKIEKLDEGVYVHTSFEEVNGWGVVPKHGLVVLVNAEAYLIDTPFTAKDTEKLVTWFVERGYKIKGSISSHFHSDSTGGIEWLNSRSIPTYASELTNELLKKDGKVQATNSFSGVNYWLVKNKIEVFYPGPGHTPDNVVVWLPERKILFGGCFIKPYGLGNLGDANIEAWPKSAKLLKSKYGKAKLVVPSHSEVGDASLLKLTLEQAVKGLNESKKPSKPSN
# NDM-1, sequence (C7C422 29-270, looked up, species assumed): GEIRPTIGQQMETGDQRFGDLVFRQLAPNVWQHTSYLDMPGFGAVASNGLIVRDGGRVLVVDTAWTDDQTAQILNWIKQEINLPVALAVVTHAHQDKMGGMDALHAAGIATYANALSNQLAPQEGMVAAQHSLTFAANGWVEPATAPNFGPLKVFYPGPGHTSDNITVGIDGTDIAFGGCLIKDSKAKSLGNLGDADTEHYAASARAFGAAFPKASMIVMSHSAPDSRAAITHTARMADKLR
Compound,"IC50 (NDM-1; NDM-1 IC50, 300 μM imipenem)",IC50 (VIM-1) [µM],IC50 (IMP-1) [µM],MICMEM (meropenem MIC in presence of inhibitor) vs NTBC121 ([1]; E. coli NTBC121 (NDM-1)) [µg/mL],MICMEM (meropenem MIC in presence of inhibitor) vs NTBC055 [2] [µg/mL],MICMEM (meropenem MIC in presence of inhibitor) vs NTBC062 [3] [µg/mL],also measured
N#Cc1cccc(CS(=O)(=O)Nc2cccnc2C(=O)O)c1 [Compound 65],116 µM,> 200,150,32,2,1,
O=C(O)c1ncccc1NS(=O)(=O)c1ccccc1 [Compound 61],,,,16,4,4,"IC50 (NDM-1; read-out: NDM-1 IC50, 300 μM imipenem): 49.9 µM; IC50 (VIM-1; read-out: VIM-1 IC50, 300 μM imipenem, 10 mM HEPES pH 7.5, 25 °C, average of at least two independent assays): > 200 µM; IC50 (IMP-1; read-out: IMP-1 IC50, 300 μM imipenem, 10 mM HEPES pH 7.5, 25 °C, average of at least two independent assays): > 200 µM; potentiation efficiency (PE = MIC/IC50) [1]: 0.32"
O=C(O)c1ncsc1NS(=O)(=O)Cc1ccc(Cl)c(Cl)c1 [Compound 70],7.88 µM,37.9,3.55,2,1,1,
O=C(O)c1ncsc1NS(=O)(=O)Cc1cc(Cl)cc(Cl)c1 [Compound 74],6.9 µM,28,3.2,2,0.5,1,
O=C(O)c1ncsc1NS(=O)(=O)Cc1ccccc1 [Compound 64],2.53 µM,62.7,1.83,0.5,0.5,0.5,
O=C(O)c1ncccc1NS(=O)(=O)Cc1cccc(C(F)(F)F)c1 [Compound 40],,,,16,2,1,IC50 (NDM-1; [7]): 17.9 µM; IC50 (VIM-1; [8]): 71.6 µM; IC50 (IMP-1; [9]): > 200 µM
O=C(O)c1ncsc1NS(=O)(=O)Cc1ccccc1Cl [Compound 68],2.32 µM,6.72,1.75,0.5,0.25,0.5,
O=C(O)c1ncsc1NS(=O)(=O)Cc1ccc(Cl)cc1Cl [Compound 72],2.1 µM,7,0.5,0.5,0.5,0.5,
O=C(O)c1ncccc1NS(=O)(=O)Cc1ccccc1Cl [Compound 39],,,,16,0.5,1,IC50 (NDM-1; [7]): 32.6 µM; IC50 (VIM-1; [8]): 10.9 µM; IC50 (IMP-1; [9]): 20.9 µM
O=C(O)c1ncsc1NS(=O)(=O)c1ccccc1 [Compound 62],4.5 µM,> 200,58.2,0.125,0.5,1,"improvement in potentiation over that expected from enzyme inhibition alone ([1]; 62 (thiazolyl) versus 61 (pyridyl), from PE values): 10 fold; potentiation efficiency (PE = MIC/IC50) [1]: 0.027; solubility at 4 h ([4]; acid form, read-out: solubility): 1.1 mg/mL; solubility at 4 h ([4]; sodium salt, read-out: solubility (Na salt)): 18.9 mg/mL; IC50 (VIM-2 [5]): 6.2 µM"
O=C(O)c1ncccc1NS(=O)(=O)Cc1ccccc1 [Compound 63],> 100 µM,> 100,> 100,16,1,1,
Cc1ccc(C(=O)Nc2cccnc2C(=O)O)cc1Cl [Compound 17],8.46 µM and 8.5 µM,95.7,87.6,,,,"inhibition of NDM-1, in words (NDM-1): low micromolar inhibition; inhibition of VIM-1, in words (VIM-1): detectable inhibition; inhibition of IMP-1, in words (IMP-1): detectable inhibition; inhibition of VIM-2, in words (VIM-2 [6]): detectable inhibition; IC50 (VIM-2 [5]): 93 µM"
N#Cc1cccc(CS(=O)(=O)Nc2scnc2C(=O)O)c1 [Compound 66],8.82 µM,54.2,2.51,2,0.5,1,
O=C(Nc1cccnc1C(=O)O)c1cocn1 [Compound 18],> 200 µM,> 200,> 200,,,,"inhibition of NDM-1, in words (NDM-1): inactive; inhibition of VIM-1, in words (VIM-1): inactive; inhibition of IMP-1, in words (IMP-1): inactive; inhibition of VIM-2, in words (VIM-2 [6]): inactive; IC50 (VIM-2 [5]): > 200 µM"
"C[C@@H](O)[C@H]1C(=O)N2C(C(=O)O)=C(S[C@@H]3CN[C@H](C(=O)N(C)C)C3)[C@H](C)[C@H]12 [meropenem, reference compound]",,,,,,,"MIC ([1]; Escherichia coli, no inhibitor, E. coli NTBC121 (NDM-1)): 32 µg/mL; MIC meropenem (no inhibitor) vs NTBC121 ([1]; no inhibitor, E. coli NTBC121 (NDM-1)): 32 µg/mL; MIC [2, 10]: 16 µg/mL; MIC meropenem (no inhibitor) vs NTBC055 ([2]; no inhibitor): 16 µg/mL; MIC [3, 10]: 4 µg/mL; MIC meropenem (no inhibitor) vs NTBC062 ([3]; no inhibitor): 4 µg/mL"
O=C(O)c1ncccc1NS(=O)(=O)Cc1ccc(Cl)cc1Cl [Compound 41],,,,16,1,1,IC50 (NDM-1; [7]): 80.6 µM; IC50 (VIM-1; [8]): 17.5 µM; IC50 (IMP-1; [9]): 74.3 µM
O=C(O)c1ncsc1NS(=O)(=O)c1ccccn1 [Compound 75],12.9 µM,> 200,114,,,,IC50 (VIM-2 [5]): 16.1 µM
O=C(O)c1ccc2ccccc2n1 [Compound 7],40.9 µM,> 200,> 200,,,,"inhibition of NDM-1, in words (NDM-1): modest inhibition; inhibition of VIM-1, in words (VIM-1): no inhibition; inhibition of IMP-1, in words (IMP-1): no inhibition; IC50 (VIM-2 [5]): > 200 µM"
